# Assays:
# [1] = test system: Rhopalosiphum padi; assay: Repellent effect of safener-treated plants on phytopathogenic insects; assay type: in vivo; conditions: barley sprayed with 150 g a.i./ha, infested 6 h or 24 h after application, average
# Experimental: Barley plants (cv. Baronesse) were grown as described in Example 1 and, after 10 days, treated by spray application with 150 g a.i./ha of isoxadifen-ethyl (S 3) or blank formulation. The experiments were carried out in replications of in each case 10 pots.
# 6 hours or 24 hours after the substance had been applied, all pots were infested uniformly with a population of the phytopathogenic aphid Rhopalosiphum padi. The experiments were evaluated after 7 days and 14 days by counting the animals on the leaves.
# [2] = test system: aphids; assay: Plant-free Sachez test, direct toxicity; assay type: in vivo
# Description: A direct toxicity of isoxadifen-ethyl (S3) against aphids was not detected in the plant-free Sachez test.
# [3] = test system: Oxophytodienoate (OPDA); assay: Oxophytodienoate (OPDA) concentration in leaves of treated plants, GC-MS/MS; assay type: in vivo, barley
# Experimental: (§1) Barley plants (cv. Baronesse) were grown under the conditions described in Example 1 and treated by spray application with safener isoxadifen-ethyl (S 3). The application rates were chosen as follows:
# (§2) (1) 30 [g a.i./ha]; (2) 150 [g a.i./ha]; (3) blank formulation (no active ingredient)
# […] All samples were designed in each case as replications of 3 pots.
# (§3) The octadecanoates and jasmonates were processed from the leaves following a procedure described in the literature (Müller A, Düchting P and Weiler E W (2002)), A multiplex GC-MS/MS technique for the sensitive and quantitative single-run analysis of acidic phytohormones and related compounds, and its application to Arabidopsis thaliana. Planta, 216, 44-56).
# (§4) 300 mg of plant material were extracted for each measuring point.
# (§5) 50 pmol [^13C]2-JA and 100 pmol [17,17,17,18,18-^2H]-cis-OPDA were applied as internal standards. The extracts were purified via aminopropyl anion-exchange chromatography in miniature solid-phase exchanger columns which had been prepared in-house.
# (§6) The results are shown in Tables 3a to 3d, the values shown being in each case means of the 3 applications.
# [4] = test system: Jasmonate (JA); assay: Jasmonate (JA) concentration in leaves of treated plants, GC-MS/MS; assay type: in vivo, barley
# Experimental: as §1, §2
# The plant leaves were harvested at different points in time after the treatment (h=hours), viz. after 1 h, 2 h, 4 h, 6 h, 12 h, 24 h and 48 h. All samples were designed in each case as replications of 3 pots.
# as §3, §4, §5, §6
smiles,measurement,setting,value
"CCOC(=O)C1=NOC(c2ccccc2)(c2ccccc2)C1 [S3, Isoxadifen-ethyl]",Aphid populations less than the controls,[1]; after 7 days,50%
same,Aphid populations less than the controls,[1]; after 14 days,70%
same,Direct toxicity against aphids,[2],not detected
same,Oxophytodienoate (OPDA) concentration,"[3]; 30 g a.i/ha, 0 hours",2500 pmol/g leaf tissue
same,Oxophytodienoate (OPDA) concentration,"[3]; 30 g a.i/ha, 1 hour",6500 pmol/g leaf tissue
same,Oxophytodienoate (OPDA) concentration,"[3]; 30 g a.i/ha, 2 hours",3750 pmol/g leaf tissue
same,Oxophytodienoate (OPDA) concentration,"[3]; 30 g a.i/ha, 4 hours",7000 pmol/g leaf tissue
same,Oxophytodienoate (OPDA) concentration,"[3]; 30 g a.i/ha, 6 hours",9000 pmol/g leaf tissue
same,Oxophytodienoate (OPDA) concentration,"[3]; 150 g a.i./ha, 0 hours",2600 pmol/g leaf tissue
same,Oxophytodienoate (OPDA) concentration,"[3]; 150 g a.i./ha, 1 hour",2800 pmol/g leaf tissue
same,Oxophytodienoate (OPDA) concentration,"[3]; 150 g a.i./ha, 2 hours",1800 pmol/g leaf tissue
same,Oxophytodienoate (OPDA) concentration,"[3]; 150 g a.i./ha, 4 hours",2200 pmol/g leaf tissue
same,Oxophytodienoate (OPDA) concentration,"[3]; 150 g a.i./ha, 6 hours",5100 pmol/g leaf tissue
same,Oxophytodienoate (OPDA) concentration,"[3]; 150 g a.i./ha, 12 hours",2400 pmol/g leaf tissue
same,Oxophytodienoate (OPDA) concentration,"[3]; 150 g a.i./ha, 24 hours",5100 pmol/g leaf tissue
same,Oxophytodienoate (OPDA) concentration,"[3]; 150 g a.i./ha, 48 hours",1900 pmol/g leaf tissue
same,Increase in OPDA concentration relative to blank formulation samples,[3]; maximum over rates and times,≤ 5 times
same,"Oxophytodienoate (OPDA) concentrations, range over the experiment","[3]; summary of Tables 3a, 3b, all rates and times",1800-9000 pmol/g leaf tissue
same,Jasmonate (JA) concentration,"[4]; 30 g a.i/ha, 1 hour",600 pmol/g leaf tissue
same,Jasmonate (JA) concentration,"[4]; 30 g a.i/ha, 2 hours",320 pmol/g leaf tissue
same,Jasmonate (JA) concentration,"[4]; 30 g a.i/ha, 4 hours",790 pmol/g leaf tissue
same,Jasmonate (JA) concentration,"[4]; 30 g a.i/ha, 6 hours",620 pmol/g leaf tissue
same,Jasmonate (JA) concentration,"[4]; 150 g a.i./ha, 1 hour",290 pmol/g leaf tissue
same,Jasmonate (JA) concentration,"[4]; 150 g a.i./ha, 2 hours",280 pmol/g leaf tissue
same,Jasmonate (JA) concentration,"[4]; 150 g a.i./ha, 4 hours",270 pmol/g leaf tissue
same,Jasmonate (JA) concentration,"[4]; 150 g a.i./ha, 6 hours",275 pmol/g leaf tissue
same,Jasmonate (JA) concentration,"[4]; 150 g a.i./ha, 12 hours",155 pmol/g leaf tissue
same,Jasmonate (JA) concentration,"[4]; 150 g a.i./ha, 24 hours",265 pmol/g leaf tissue
same,Jasmonate (JA) concentration,"[4]; 150 g a.i./ha, 48 hours",320 pmol/g leaf tissue
same,Increase in JA concentration relative to blank formulation samples,[4]; maximum over rates and times,≤ 5 times
same,"Jasmonate (JA) concentrations, range over the experiment","[4]; summary of Tables 3c, 3d, all rates and times",70-800 pmol/g leaf tissue

# Reference: patent US20070265164A1, “Active Substances for Increasing Pathogenic Defense in Plants and Methods for the Detection Thereof” (Bayer Cropscience GmbH, priority 2004, published 2007)
